Series [1] deals with T. cruzi INC-5 epimastigotes. Kind of series: Viability (MTT) assay on T. cruzi epimastigotes. The class given is cell-based, Trypanosoma cruzi. The note with it: Trypanosoma cruzi, 24 h, mean and SD of triplicate. The protocol:
In this study, two strains of T. cruzi isolated in Mexico were used. […] Epimastigotes were cultured in vitro in liver infusion-tryptose (LIT) medium supplemented with 10% heat inactivated fetal bovine serum (FBS) (Gibco) and 100 U/mL penicillin-streptomycin (In vitro S.A.), and incubated at 27 °C. CD1 mice, aged 6–8 weeks, were infected with T. cruzi to obtain bloodstream trypomastigote samples.
Viability assays of T. cruzi epimastigotes using 3-(4,5-dimethylthiazol-2-yl)-2,5-diphenyltetrazolium bromide (MTT) were performed. Briefly, the parasites were harvested during the exponential growth phase for a period of five days. In a 96-well microplate 1x10^6 epimastigotes were deposited in brain-heart infusion (BHI) medium supplemented with 10% FBS and 100 U/mL antibiotic-antifungal mixture (Gibco). […] Each well reached a final volume of 100 µL. Each condition was assessed in triplicate. The microplate was incubated for 24 h at 27 °C in darkness. Afterwards, 10 μL of a 5 mg/mL MTT solution was added and the plate was incubated for 20 h at 27 °C. Then 200 μL of 10% dodecyl sulfate (SDS)/0.1% HCl solution was added to dissolve formazan salts; the plate was incubated an additional 4 h. Finally, the plate was read at 570 nm in a spectrophotometer (Multiskan EX Thermo Electron, Taipei, Taiwan). The amount of viable cells was proportional to the amount of formazan produced. […] Later the results were converted to micromolar units. […] As a […] control, parasites were incubated only in culture medium with a 1% DMSO concentration, corresponding to the highest sample dilution of DMSO [34, 35, 36].

The nature of series [2]: Cytotoxicity assay (Alamar Blue) on macrophages. Type of series: cell-based, murine. The note with it: mouse, J774A.1 macrophages, mean and SD of triplicate. The protocol:
The murine macrophage cell line J774.A1 was maintained in culture flasks with RPMI 1640 medium supplemented with 10% FBS, 1% MEM-NEAA medium (Gibco) and 100 U/mL antibiotic-antifungal mixture (Gibco). Cells were incubated at 37 °C with 5% CO2 and humidity. Trypsinized J774.A1 macrophages were washed and viability was assessed by the trypan blue dye (Sigma-Aldrich, Toluca, Edo de Mexico, Mexico) exclusion assay. In a 96-well microplate, 50,000 macrophages were seeded per well and a dose-response assay was performed. Compounds were evaluated using six-fold serial dilutions ranging from 100 µg/mL to 0.3 µg/mL of final concentration. Each compound was tested in triplicate. After 20 h incubation, Alamar Blue was added (10% v/v) and cells were incubated for an additional 4 h period. Results were obtained as previously described and CC50 was calculated. As a negative control of cytotoxicity, cells were incubated only in the presence of 0.1% DMSO [39, 40].
In general terms: Alamar Blue is a resazurin reagent that responds to reducing activity.

Series [3] concerns T. cruzi bloodstream trypomastigotes INC-5 strain. The experiment in a line: microbe, parasite or virus in culture. The class given is cell-based. Particulars: Trypanosoma cruzi; for killing at 50 µg/mL: 50 μg/mL, 24 h at 4 °C, infected mouse blood, read-out: % Lysis at 50 μg/mL INC-5 Strain; for CC50: 24 h, bloodstream trypomastigotes, 24 h at 4 °C (called IC50 in abstract), read-out: LC50 INC-5 Strain. The protocol: (§1) In this study, two strains of T. cruzi isolated in Mexico were used. T. cruzi NINOA strain (MHOM/MX/1994/NINOA) was obtained from a patient with acute Chagas disease and T. cruzi INC-5 (MHOM/MX/1994/INC5) was isolated from a patient in the chronic phase of the disease. Epimastigotes were cultured in vitro in liver infusion-tryptose (LIT) medium supplemented with 10% heat inactivated fetal bovine serum (FBS) (Gibco) and 100 U/mL penicillin-streptomycin (In vitro S.A.), and incubated at 27 °C. CD1 mice, aged 6–8 weeks, were infected with T. cruzi to obtain bloodstream trypomastigote samples. Animal experiments were performed according to Norma Oficial Mexicana (NOM-062-Z00-1999) published on 22 August, 2009.
(§2) CD1 female mice 6–8 weeks old were infected with T. cruzi bloodstream trypomastigotes of the INC-5 and NINOA strains. The course of infection continued for 4–6 weeks. At the peak of parasitemia blood was obtained by cardiac puncture using sodium heparin as an anticoagulant. The blood was adjusted to 1 × 10^6 bloodstream trypomastigotes/mL.
(§3) In each well of the 96-well plate, 195 μL of infected blood and 5 μL of quinoxaline 1,4-di-N-oxide derivatives or reference drug dilutions were seeded, with each well reaching a final volume of 200 µL. Each assay was performed in triplicate. Initially, all compounds were tested at 50 μg/mL. […] As a negative control of lysis, wells with untreated blood trypomastigotes were used, and as a positive control, wells with the reference drugs were used. The microplates were incubated at 4 °C for 24 h. Bloodstream trypomastigotes were quantified by the method of Brener-Pizzi, 5 μL of blood were placed on a slide and covered with a coverslip 13 × 13 mm. The mobile protozoa were counted in 15 fields at 40× magnification using an optical microscope. The percentage lysis was determined by comparing the remaining trypomastigotes against the negative control. LC50 was determined with the Probit statistical tool. The results were later converted to micromolar units.

Series [4] has as its system T. cruzi bloodstream trypomastigotes NINOA strain. The experiment in a line: microbe, parasite or virus in culture. The class given is cell-based. The note with it: Trypanosoma cruzi; for killing at 50 µg/mL: 50 μg/mL, 24 h at 4 °C, infected mouse blood, read-out: % Lysis at 50 μg/mL NINOA Strain. The protocol: as §1, §2, §3

The values below come from paper PMC6155662, “Trypanocidal Activity of Quinoxaline 1,4 Di-N-oxide Derivatives as Trypanothione Reductase Inhibitors” (Molecules : A Journal of Synthetic Chemistry and Natural …, 2017).

The term IC50 denotes the concentration at which inhibition is half-maximal. Higher therefore signals a need for much substance. Regarding `CC1CS(=O)(=O)CCN1/N=C/c1ccc([N+](=O)[O-])o1` (stereo not shown) [Nfx, nifurtimox, reference compound], the IC50 in series [1] turned out to be 8.74 ± 3.8 µM. For the same molecule, the CC50 at 24 h in series [2] was determined as 201 ± 12.5 µM. The killing at 50 µg/mL in series [3] came to 62.6 ± 3.9%; in series [4] it was 67.3 ± 5.4%.

For `O=C(Cn1ccnc1[N+](=O)[O-])NCc1ccccc1` [Bnz, benznidazole, reference compound], in series [1], inhibition was half-maximal at 42.3 ± 5.76 µM (IC50). For the same molecule, the CC50 at 24 h in series [2] was found to be 352 ± 17.1 µM. For the same molecule, in series [3], the CC50 was 85.3 ± 16.7 µM and the killing at 50 µg/mL turned out to be 53.5 ± 5.6%. Also, the killing at 50 µg/mL in series [4] came out at 58.1 ± 4.5%.

`CCOC(=O)c1c(C)[n+]([O-])c2ccc(C(=O)OC(C)C)cc2[n+]1[O-]` [Compound T-065, Isopropyl ethyl-3-methylquinoxaline-2,7-dicarboxylate 1,4-di-N-oxide]: the IC50 in series [1] is > 148 µM. In addition, the CC50 at 24 h in series [2] is > 296 µM. In addition, the results for the killing at 50 µg/mL in series [3] and in series [4] were 3.78 ± 5.7% and 0.77 ± 1.58%, respectively.

Take `Cc1c(C(=O)Nc2ccccc2)[n+]([O-])c2cc(C(=O)OC(C)C)ccc2[n+]1[O-]` [Compound T-097, Isopropyl 2-phenylamide-3-methylquinoxaline-7-carboxylate 1,4-di-N-oxide]: the IC50 in series [1] was > 130 µM. Moreover, the CC50 at 24 h in series [2] is > 261 µM. Also, the killing at 50 µg/mL worked out at 12.4 ± 5.2% in series [3] and 12.2 ± 10.9% in series [4].

A word on the LC50: it is the concentration lethal to half of the exposed cells or organisms. In series [1], `CC(C)OC(=O)c1ccc2c(c1)[n+]([O-])c(C(=O)c1cccs1)c(C(F)(F)F)[n+]2[O-]` [Compound T-069, Isopropyl 2-(thiophene-2-carbonyl)-3-trifluoromethylquinoxaline-7-carboxylate 1,4-di-N-oxide] displayed a half-maximal inhibitory concentration (IC50) of 4.95 ± 0.5 µM. In addition, in series [2], the CC50 at 24 h was determined as 12.8 ± 0.6 µM. In series [3], the CC50 stood at 111 ± 9.3 µM and the killing at 50 µg/mL stood at 77.7 ± 9.3%. In addition, in series [4] (24 h), the LC50 turned out to be 98 ± 6.1 µM. Moreover, in series [4], the killing at 50 µg/mL was 57.3 ± 2.8%.

In turn, `CCOC(=O)c1c(C(F)(F)F)[n+]([O-])c2ccc(C(=O)OC(C)C)cc2[n+]1[O-]` [Compound T-116, Isopropyl ethyl-3-trifluoromethylquinoxaline-2,7-dicarboxylate 1,4-di-N-oxide] had an IC50 in series [1] of 5.2 ± 2.1 µM. Further, in series [2], the CC50 at 24 h is 14.5 ± 0.8 µM. Besides, the values for the killing at 50 µg/mL in series [3] and in series [4] were 17.6 ± 2.6% and 49.9 ± 4%, respectively.

Take `CCCOC(=O)c1ccc2c(c1)[n+]([O-])c(C(=O)Nc1ccccc1)c(C)[n+]2[O-]` [Compound T-125, n-Propyl 2-phenylamide-3-methylquinoxaline-7-carboxylate 1,4-di-N-oxide]: in series [1], the IC50 was > 130 µM. Also, the CC50 at 24 h in series [2] was > 261 µM. The killing at 50 µg/mL in series [3] came to 0%; in series [4], 35.6 ± 3.6%.
